Assay results as given in patent US10065973B2, “Substituted aminothiazolopyrimidinedione for the treatment and prophylaxis of virus infection” (Hoffmann-La Roche Inc., priority 2016, dated 2018).

system: human hepatocytes; test: Metabolic conversion of prodrugs to active form in human hepatocytes; assay type: in vitro ADME; conditions: active metabolites Example 10-A and penciclovir, respectively
Source text: Metabolism of Prodrugs: Compounds of Formula (II) A study was undertaken to evaluate the metabolic conversion of prodrugs, compounds of formula (II) or (IIa), to compounds of formula (I) or (Ia) of the present invention. The produgs, compounds of formula (II) or (IIa), can be metabolized to the active compound of formula (I) or (Ia) and other compounds of the invention in the body if they are served as prodrugs. Hepatocytes are often used to assess the degree of metabolic conversion of prodrugs in the body of animal or human. A study was undertaken to evaluate the metabolic conversion of prodrug Example 21, Example 22, Example 23, Example 24, Example 25 and Example 26, to the corresponding active form, Example 10-A, in the presence of human hepatocytes. The formation of active form, Example 10-A, was monitored in the study. For comparison, the metabolic conversion of famciclovir to penciclovir was also assessed. Cryopreserved hepatocytes plating medium (Cat.#: PY-HMD-03) was purchased from RILD Research Institute for Liver Diseases (Shanghai) Co. Ltd. Cryopreserved human hepatocyte (Cat.#: X008005, Lot#:VRR) was purchased from BioreclamationIVT (Baltimore, Md.). The stock hepatocyte suspension was prepared from cryopreserved hepatocytes in plating medium at the concentration of 1.8×10^6 cells/mL. Compounds were dissolved in DMSO to make 10 mM stock solutions. 10 μL of the stock solution was diluted to 990 μL plating medium to get a 100 μM working solution. Reaction suspensions were prepared in 24-well cell culture plate by mixing 200 μL of hepatocytes suspension (human) and 200 μL of working solution. The final incubation contained 0.9×10^6 cells/mL and 50 μM compound. The above mixtures were incubated at 37° C. in a humidified 5% CO2 atmosphere, with a 900 rpm shaking. After 180 min of incubation, 200 μL of the incubation mixture was transferred to 1.5 mL tube and quenched with 400 μL stop solution (ice-cold acetonitrile with 0.2 μM Tolbutamide as internal standard). The samples were centrifuged at 14000 rpm for 10 minutes and the resultant supernatants were subjected to LC-MS/MS analysis. The calibration curves were prepared in the following way. To a 200 μL of cell suspension (cell density of 1.8 million cells/mL), 198 μL of hepatocyte plating medium and 2 μL of the appropriate concentration of the compound in DMSO were added. Samples were mixed thoroughly and 200 μL of the mixture was transferred to 400 μL of the stop solution (see above). The standard curve range is from 1 μM to 25 μM. The compounds were quantified on an API5500 […] instrument in the ESI-Positive MRM mode.

Compound | metabolic conversion to active metabolite in human hepatocytes
CC[C@H](O)[C@@H]1C[C@@H]([C@@H](C)OC(C)=O)[C@H](n2c(=O)sc3cnc(N)nc32)O1 [Example 21, [(1R)-1-[(2R,3S,5S)-2-(5-Amino-2-oxo-thiazolo[4,5-d]pyrimidin-3-yl)-5-[(1S)-1-hydroxypropyl]tetrahydrofuran-3-yl]ethyl] acetate] | metabolized to yield the corresponding active metabolites
CC[C@H](OC(C)=O)[C@@H]1C[C@@H]([C@@H](C)O)[C@H](n2c(=O)sc3cnc(N)nc32)O1 [Example 22, [(1S)-1-[(2S,4S,5R)-5-(5-Amino-2-oxo-thiazolo[4,5-d]pyrimidin-3-yl)-4-[(1R)-1-hydroxyethyl]tetrahydrofuran-2-yl]propyl] acetate] | metabolized to yield the corresponding active metabolites
CC[C@H](O)[C@@H]1C[C@@H]([C@@H](C)OC(=O)C(C)C)[C@H](n2c(=O)sc3cnc(N)nc32)O1 [Example 23, [(1R)-1-[(2R,3S,5S)-2-(5-Amino-2-oxo-thiazolo[4,5-d]pyrimidin-3-yl)-5-[(1S)-1-hydroxypropyl]tetrahydrofuran-3-yl]ethyl] 2-methylpropanoate] | metabolized to yield the corresponding active metabolites
CC[C@H](O)[C@@H]1C[C@@H]([C@@H](C)OC(=O)C(C)(C)C)[C@H](n2c(=O)sc3cnc(N)nc32)O1 [Example 24, [(1R)-1-[(2R,3S,5S)-2-(5-Amino-2-oxo-thiazolo[4,5-d]pyrimidin-3-yl)-5-[(1S)-1-hydroxypropyl]tetrahydrofuran-3-yl]ethyl] 2,2-dimethylpropanoate] | metabolized to yield the corresponding active metabolites
CC[C@H](O)[C@@H]1C[C@@H]([C@@H](C)OC(=O)CC(C)C)[C@H](n2c(=O)sc3cnc(N)nc32)O1 [Example 25, [(1R)-1-[(2R,3S,5S)-2-(5-Amino-2-oxo-thiazolo[4,5-d]pyrimidin-3-yl)-5-[(1S)-1-hydroxypropyl]tetrahydrofuran-3-yl]ethyl] 3-methylbutanoate] | metabolized to yield the corresponding active metabolites
CCOC(=O)O[C@H](C)[C@@H]1C[C@@H]([C@@H](O)CC)O[C@H]1n1c(=O)sc2cnc(N)nc21 [Example 26, [(1R)-1-[(2R,3S,5S)-2-(5-Amino-2-oxo-thiazolo[4,5-d]pyrimidin-3-yl)-5-[(1S)-1-hydroxypropyl]tetrahydrofuran-3-yl]ethyl] ethyl carbonate] | metabolized to yield the corresponding active metabolites
CC(=O)OCC(CCn1cnc2cnc(N)nc21)COC(C)=O [Famciclovir, famciclovir, reference compound] | metabolized to yield the corresponding active metabolites
